Like-named read-outs stand apart in the source and are kept apart here.
What was measured:
Assay type in all cases: cell-based
human TLR7 = target: T1, human TLR7 (Homo sapiens, UniProt Q9NYK1); assay: TLR7 inhibition reporter assay (HEK-Blue cells, secreted embryonic alkaline phosphatase reporter); conditions: HEK-Blue cells overexpressing human TLR7, stimulated with gardiquimod 7.5 μM; read-out: TLR 7 IC50
T1 construct: host or cells: HEK-Blue cells (HEK293-derived reporter line)
T1 sequence (Q9NYK1 27-1049): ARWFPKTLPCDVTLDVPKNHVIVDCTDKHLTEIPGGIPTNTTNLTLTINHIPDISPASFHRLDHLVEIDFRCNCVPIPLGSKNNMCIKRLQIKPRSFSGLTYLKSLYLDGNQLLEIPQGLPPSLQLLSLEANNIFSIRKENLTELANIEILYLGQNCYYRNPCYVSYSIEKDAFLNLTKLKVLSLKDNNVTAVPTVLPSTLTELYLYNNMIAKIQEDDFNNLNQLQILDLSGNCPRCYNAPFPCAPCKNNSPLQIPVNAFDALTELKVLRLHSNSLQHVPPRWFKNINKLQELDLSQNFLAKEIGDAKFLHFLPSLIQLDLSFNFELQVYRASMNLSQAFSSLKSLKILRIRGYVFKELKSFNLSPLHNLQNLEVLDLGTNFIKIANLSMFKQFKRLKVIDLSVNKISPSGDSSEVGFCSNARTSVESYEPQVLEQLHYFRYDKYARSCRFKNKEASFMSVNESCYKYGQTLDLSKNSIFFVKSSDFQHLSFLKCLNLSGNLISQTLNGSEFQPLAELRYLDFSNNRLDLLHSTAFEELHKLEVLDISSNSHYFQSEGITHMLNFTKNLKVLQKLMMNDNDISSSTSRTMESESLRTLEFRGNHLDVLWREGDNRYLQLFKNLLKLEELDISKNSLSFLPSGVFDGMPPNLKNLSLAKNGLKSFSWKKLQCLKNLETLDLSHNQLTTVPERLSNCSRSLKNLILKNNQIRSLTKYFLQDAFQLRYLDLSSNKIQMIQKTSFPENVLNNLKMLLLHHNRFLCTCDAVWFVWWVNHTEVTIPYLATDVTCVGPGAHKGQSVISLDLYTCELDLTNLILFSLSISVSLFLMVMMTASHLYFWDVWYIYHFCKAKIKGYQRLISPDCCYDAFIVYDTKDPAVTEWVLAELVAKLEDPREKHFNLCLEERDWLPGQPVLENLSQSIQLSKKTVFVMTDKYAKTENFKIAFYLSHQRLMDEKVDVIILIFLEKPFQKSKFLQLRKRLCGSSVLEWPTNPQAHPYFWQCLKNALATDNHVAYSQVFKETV
Method in brief: (§1)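 Inhibitors are tested in dose response (0.05 nM–50 μM) on HEK-Blue reporter cells expressing human TLR7, TLR8 or TLR9. After 30 min at room temperature, each line is stimulated with its own agonist (gardiquimod 7.5 μM, R848 15.9 μM or ODN2006 5 nM, final) and SEAP is measured 22 h later.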

human TLR8 = target: T2, human TLR8 (Homo sapiens, UniProt Q9NR97); assay: TLR8 inhibition reporter assay (HEK-Blue cells, secreted embryonic alkaline phosphatase reporter); conditions: HEK-Blue cells overexpressing human TLR8, stimulated with R848 15.9 μM; read-out: TLR 8 IC50
T2 construct: host or cells: HEK-Blue cells (HEK293-derived reporter line)
T2 sequence (Q9NR97 27-1041): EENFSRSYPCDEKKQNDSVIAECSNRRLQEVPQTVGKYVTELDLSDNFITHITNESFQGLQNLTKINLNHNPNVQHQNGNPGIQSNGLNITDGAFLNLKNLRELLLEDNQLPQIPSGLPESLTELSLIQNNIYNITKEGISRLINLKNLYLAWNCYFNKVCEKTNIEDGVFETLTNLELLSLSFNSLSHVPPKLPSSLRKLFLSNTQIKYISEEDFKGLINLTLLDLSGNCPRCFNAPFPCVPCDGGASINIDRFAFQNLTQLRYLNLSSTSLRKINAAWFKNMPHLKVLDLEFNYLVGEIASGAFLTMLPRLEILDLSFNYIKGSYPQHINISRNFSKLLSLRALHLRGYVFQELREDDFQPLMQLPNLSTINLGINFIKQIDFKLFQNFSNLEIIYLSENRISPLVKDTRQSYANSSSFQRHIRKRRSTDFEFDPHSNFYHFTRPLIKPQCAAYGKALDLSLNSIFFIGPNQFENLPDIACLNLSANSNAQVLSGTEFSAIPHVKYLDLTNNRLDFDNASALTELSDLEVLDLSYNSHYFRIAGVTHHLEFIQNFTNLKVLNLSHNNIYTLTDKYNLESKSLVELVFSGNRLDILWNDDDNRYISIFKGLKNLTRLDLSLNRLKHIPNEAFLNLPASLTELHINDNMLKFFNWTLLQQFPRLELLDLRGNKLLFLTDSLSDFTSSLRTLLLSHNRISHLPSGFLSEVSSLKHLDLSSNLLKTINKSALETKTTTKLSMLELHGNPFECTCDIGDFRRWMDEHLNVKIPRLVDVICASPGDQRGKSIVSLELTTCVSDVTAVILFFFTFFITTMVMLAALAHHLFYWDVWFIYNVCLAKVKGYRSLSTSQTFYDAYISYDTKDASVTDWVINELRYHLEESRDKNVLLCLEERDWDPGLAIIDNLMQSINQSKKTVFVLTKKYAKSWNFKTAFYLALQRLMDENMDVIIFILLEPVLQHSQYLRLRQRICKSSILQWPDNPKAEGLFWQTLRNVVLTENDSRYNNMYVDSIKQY
Method in brief: as §1

human TLR9 = target: T3, human TLR9 (Homo sapiens, UniProt Q9NR96); assay: TLR9 inhibition reporter assay (HEK-Blue cells, secreted embryonic alkaline phosphatase reporter)
T3 construct: host or cells: HEK-Blue cells (HEK293-derived reporter line)
T3 sequence (Q9NR96 26-1032): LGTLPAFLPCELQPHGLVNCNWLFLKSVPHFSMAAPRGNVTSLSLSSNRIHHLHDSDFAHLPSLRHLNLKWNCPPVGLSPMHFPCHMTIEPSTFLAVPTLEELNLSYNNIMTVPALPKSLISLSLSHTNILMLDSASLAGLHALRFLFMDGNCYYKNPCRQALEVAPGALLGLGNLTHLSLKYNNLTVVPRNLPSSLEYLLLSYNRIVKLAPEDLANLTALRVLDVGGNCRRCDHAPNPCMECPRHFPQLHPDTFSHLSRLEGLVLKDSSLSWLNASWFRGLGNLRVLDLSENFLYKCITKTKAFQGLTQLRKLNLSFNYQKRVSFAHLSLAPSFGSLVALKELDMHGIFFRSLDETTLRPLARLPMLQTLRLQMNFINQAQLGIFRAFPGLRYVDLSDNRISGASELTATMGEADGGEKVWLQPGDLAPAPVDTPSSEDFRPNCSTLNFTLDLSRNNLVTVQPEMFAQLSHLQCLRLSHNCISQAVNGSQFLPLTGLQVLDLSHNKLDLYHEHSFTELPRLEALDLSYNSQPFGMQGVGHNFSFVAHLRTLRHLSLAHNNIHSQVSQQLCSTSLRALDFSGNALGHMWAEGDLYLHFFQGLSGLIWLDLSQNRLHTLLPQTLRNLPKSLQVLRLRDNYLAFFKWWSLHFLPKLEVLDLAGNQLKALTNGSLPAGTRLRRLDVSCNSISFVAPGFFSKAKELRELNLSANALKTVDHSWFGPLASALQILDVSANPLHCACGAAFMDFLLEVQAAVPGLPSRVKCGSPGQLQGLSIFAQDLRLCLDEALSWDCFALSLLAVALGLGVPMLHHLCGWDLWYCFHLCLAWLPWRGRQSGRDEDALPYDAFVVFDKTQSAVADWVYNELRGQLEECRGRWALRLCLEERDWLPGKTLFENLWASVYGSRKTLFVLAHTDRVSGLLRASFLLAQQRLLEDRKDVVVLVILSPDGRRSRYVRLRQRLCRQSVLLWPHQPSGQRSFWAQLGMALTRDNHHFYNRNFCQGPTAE
Method in brief: as §1

[1] = HEK-Blue cells overexpressing human TLR9, stimulated with ODN2006 5 nM, 22 hour incubation, reporter readout
[2] = HEK-Blue cells overexpressing human TLR9, stimulated with ODN2006 5 nM, read-out: TLR 9 IC50

IC50 (human TLR7) | IC50 (human TLR8) | IC50 (human TLR9; [1]) | IC50 (human TLR9; [2]) | IC50 (human TLR9) | IC50 (human TLR9; HEK-Blue human TLR9 reporter cells) | Structure (SMILES)
4200 nM | 10200 nM | 91 nM | 91 nM | – | – | Cc1cc(-c2ccc(CN3CCC(N(C)C)CC3)c(F)c2)cc2c1nc(-c1ccc(S(C)(=O)=O)cc1)n2C [Example 390, 1-(4-(1,4-dimethyl-2-(4-(methylsulfonyl)phenyl)-1H-benzo[d]imidazol-6-yl)-2-fluorobenzyl)-N,N-dimethylpiperidin-4-amine]
> 50000 nM | > 50000 nM | 240 nM | 244 nM | – | – | COc1ccc(-c2nc3cc(C4CCN(C5CCN(C(C)C)CC5)CC4)c(C(F)(F)F)cc3[nH]2)cc1OC [Example 10, 2-(3,4-dimethoxyphenyl)-5-(1′-isopropyl-[1,4′-bipiperidin]-4-yl)-6-(trifluoromethyl)-1H-benzo[d]imidazole]
> 50000 nM | > 50000 nM | – | 184 nM | 180 nM | – | CS(=O)(=O)c1ccc(-c2nc3ccc(C4CCN(C5CCN(CC6CC6)CC5)CC4)c(F)c3[nH]2)cc1 [Example 179, 6-(1′-(cyclopropylmethyl)-[1,4′-bipiperidin]-4-yl)-7-fluoro-2-(4-(methylsulfonyl)phenyl)-1H-benzo[d]imidazole]
1400 nM | 16700 nM | – | 69 nM | 69 nM | – | CC(C)CN1C2CCC1CC(N1CCC(c3cc4c(cc3F)nc(-c3ccc(S(C)(=O)=O)cc3)n4C)CC1)C2 (single isomer, unassigned) [Example 228, 5-fluoro-6-(1-(8-isobutyl-8-azabicyclo[3.2.1]octan-3-yl)piperidin-4-yl)-1-methyl-2-(4-(methylsulfonyl)phenyl)-1H-benzo[d]imidazole]
15400 nM | > 50000 nM | – | 108 nM | 110 nM | – | Cn1c(-c2ccc(S(C)(=O)=O)cc2)nc2cc(C3CCN(C4CCN(CC5CC5)CC4)CC3)cc(F)c21 [Example 203, 5-(1′-(cyclopropylmethyl)-[1,4′-bipiperidin]-4-yl)-7-fluoro-1-methyl-2-(4-(methylsulfonyl)phenyl)-1H-benzo[d]imidazole]
1500 nM | > 50000 nM | – | 42 nM | – | 42 nM | CS(=O)(=O)c1ccc(-c2nc3c(F)cc(C4CCN(C5CC6CCC(C5)N6CC5CC5)CC4)cc3n2C2CC2)cc1 (single isomer, unassigned) [Example 324, 1-cyclopropyl-6-(1-(8-(cyclopropylmethyl)-8-azabicyclo[3.2.1]octan-3-yl)piperidin-4-yl)-4-fluoro-2-(4-(methylsulfonyl)phenyl)-1H-benzo[d]imidazole]
1300 nM | 400 nM | 200 nM | 203 nM | – | – | CN(C)C1CCN(Cc2ccc(-c3ccc4nc(-c5ccc(S(C)(=O)=O)cc5)n(C)c4c3)cc2)CC1 [Example 375, N,N-dimethyl-1-(4-(1-methyl-2-(4-(methylsulfonyl)phenyl)-1H-benzo[d]imidazol-6-yl)benzyl)piperidin-4-amine]
2500 nM | > 50000 nM | 28 nM | – | – | – | COc1ccc(-c2nc3c(C)cc(C4CCN(C5CC6CCC(C5)N6CC(C)C)CC4)cc3[nH]2)cc1OC (single isomer, unassigned) [Example 19, 2-(3,4-dimethoxyphenyl)-6-(1-(8-isobutyl-8-azabicyclo[3.2.1]octan-3-yl)piperidin-4-yl)-4-methyl-1H-benzo[d]imidazole]
2100 nM | 14200 nM | 300 nM | – | – | – | Cc1cc(-c2ccc(C3CCN(C(C)C)CC3)nc2)cc2c1nc(-c1ccc(S(C)(=O)=O)cc1)n2C [Example 365, 6-(6-(1-isopropylpiperidin-4-yl)pyridin-3-yl)-1,4-dimethyl-2-(4-(methylsulfonyl)phenyl)-1H-benzo[d]imidazole]
19500 nM | > 50000 nM | – | 1220 nM | 1200 nM | – | Cn1c(-c2ccc(S(C)(=O)=O)cc2)nc2c(F)cc(C3CCN(C4CCN(C5COC5)CC4)CC3)cc21 [Example 279, 4-fluoro-1-methyl-2-(4-(methylsulfonyl)phenyl)-6-(1′-(oxetan-3-yl)-[1,4′-bipiperidin]-4-yl)-1H-benzo[d]imidazole]
7500 nM | > 50000 nM | – | 303 nM | 300 nM | – | Cn1c(-c2ccc(S(C)(=O)=O)cc2)nc2ccc(C3CCN(C4CC5CCC(C4)N5C4COC4)CC3)c(F)c21 (stereo not drawn) [Example 273, 7-fluoro-1-methyl-2-(4-(methylsulfonyl)phenyl)-6-(1-(8-(oxetan-3-yl)-8-azabicyclo[3.2.1]octan-3-yl)piperidin-4-yl)-1H-benzo[d]imidazole]

Reference: US12492188B2, “1H-benzo[D]imidazole derivatives as TLR9 inhibitors for the treatment of fibrosis” (BRISTOL-MYERS SQUIBB COMPANY, priority 2020, dated 2025)
